“Also recorded” adds a separate entry of the source.
Experiments:
Aco1 = test: Quantitative PCR of Aco1 mRNA in rat prefrontal cortex and hippocampus after Li or VPA; type: in vivo; settings: normalized to Gapdh; for Aco1 gene expression: relative to control, mean ± SD
Method: (§1) Real-time quantitative RT-PCR analysis was conducted using an ABI7900HT Fast Real-Time PCR System (Applied Biosystems, Foster City, Calif.) in both human and rat samples. TaqMan probes and primers for the seven genes (ACO1, ACO2, IDH1, IDH2, IDH3A, IDH3B, IDH3G) and GAPDH (an internal control) (Table 11) were TAQMAN® Gene Expression Assays products (Applied Biosystems).
(§2) The CSF concentrations of 116 major metabolites from several pathways were measured. […] Male Sprague-Dawley rats (Japan SLC Inc., Shizuoka, Japan) aged 6 weeks old were used in this study. All rats were housed in groups of three per cage in a room maintained at 23° C.±2° C. and 60±10% humidity with a 12/12 hour light/dark cycle (lights on at 7:00 a.m.). The rats were given free access to food and water. Animal care and use were conducted in accordance with the Institutional Guidelines for Animal Care and Use of Otsuka Pharmaceutical Co., Ltd. (Tokushima, Japan). […] The drinking water was replaced twice a week. […] All animals were decapitated on day 30 after CSF sampling, and brain regions (prefrontal cortex, and hippocampus) were dissected rapidly on ice. Metabolomic analyses of rat CSF samples were performed as described herein.
(§3) Prefrontal cortex, and hippocampus were dissected rapidly on ice and stored in RNA later (Applied Biosystems) at 4° C. until used for RNA isolation, cDNA synthesis and polymerase chain reaction (PCR) amplification. The total RNA was extracted using the RNeasy Lipid Tissue Mini Kit (QIAGEN) following the instructions of manufacturer. RNA yield and integrity was assessed using Nanodrop (NanoDrop Technologies). Reverse transcription of total RNA was done using the […] VILO cDNA Synthesis Kit (Invitrogen). In the quantitative PCR, the cDNA was amplified using commercial TaqMan assays (Applied Biosystems) for rat Idh3A (Rn00586270_m1), Idh3B (Rn00504589_g1), Aco1 (Rn00569045_m1), Aco2 (Rn00577876_m1) and Gapdh (Rn01775763_g1) with an ABI 7500 Fast Real-Time PCR system (Applied Biosystems). (Table 17) Reactions were performed in triplicates. All reactions were normalized to Gapdh and presented as relative expression changes compared to control.

serum samples from rats = test: Metabolomics of serum samples from rats chronically treated with Li or VPA; type: in vivo, rat; settings: chronic (4-weeks) treatment
Method: Data from human samples are presented as mean±standard deviation (SD). Statistical analysis was performed using SAS software version 9.3 (SAS Institute, Cary, N.C.). Analyses of metabolites between control and BD groups were performed using unpaired t-tests and Wilcoxon rank sum tests. A logistic regression model with a stepwise selection method was used for the multivariate analysis and multiple regression analysis (consistent with description in Allen et al., Technometrics. 1974; 16(1):125-127; and Miller et al., Chapman and Hall. 1974, which are incorporated in their entireties by reference herein). […] The Mann-Whitney U test (two-tailed) was used to evaluate changes in expression levels of the ACO and IDH genes between control and BD groups. Rat data are presented as mean±SD. To determine the effects of drug treatment, a one-way ANOVA, followed by the post hoc Dunnett's test was used. P values of less than 0.05 for two-tailed tests were considered statistically significant.
as §2
The serum concentrations of 116 major metabolites from several pathways were measured.

Idh3b = test: Quantitative PCR of Idh3b mRNA in rat prefrontal cortex and hippocampus after Li or VPA; type: in vivo; settings: normalized to Gapdh; for Idh3b gene expression: relative to control, mean ± SD
Method: as §1, §2, §3

Aco2 = test: Quantitative PCR of Aco2 mRNA in rat prefrontal cortex and hippocampus after Li or VPA; type: in vivo; settings: normalized to Gapdh; for Aco2 gene expression: relative to control, mean ± SD
Method: as §1, §2, §3

Idh3a = test: Quantitative PCR of Idh3a mRNA in rat prefrontal cortex and hippocampus after Li or VPA; type: in vivo; settings: normalized to Gapdh
Method: as §1, §2, §3

[1] = rat prefrontal cortex and hippocampus, chronic (4-weeks) treatment, vs control, sodium salt

CCCC(CCC)C(=O)[O-].[Na+] [VPA, valproic acid sodium salt]
Aco1 gene expression (Aco1; rat hippocampus): 1.0956 ± 0.0520 | mRNA levels of Aco1 (Aco1; [1]): did not alter; also recorded: not altered | Aco1 gene expression (Aco1; rat prefrontal cortex): 1.1550 ± 0.1237 | 2,3-Diphosphoglyceric acid Mean (serum samples from rats; rat serum): 2.1 | 2-Hydroxyglutaric acid Mean (serum samples from rats; rat serum): 1.5 | 2-Oxoglutaric acid Mean (serum samples from rats; rat serum): 29 | 2-Oxoisovaleric acid Mean (serum samples from rats; rat serum): 15 | 2-Phosphoglyceric acid Mean (serum samples from rats; rat serum): 0.6 | 3-Phosphoglyceric acid Mean (serum samples from rats; rat serum): 5.0 | ADP-ribose Mean (serum samples from rats; rat serum): 0.13 | AMP Mean (serum samples from rats; rat serum): 0.4 | ATP Mean (serum samples from rats; rat serum): 4.2 | Ala Mean (serum samples from rats; rat serum): 757 | Arg Mean (serum samples from rats; rat serum): 206 | Argininosuccinic acid Mean (serum samples from rats; rat serum): 0.4 | Asn Mean (serum samples from rats; rat serum): 77 | Asp Mean (serum samples from rats; rat serum): 12 | Betaine Mean (serum samples from rats; rat serum): 287 | Carnitine Mean (serum samples from rats; rat serum): 78 | Carnosine Mean (serum samples from rats; rat serum): 0.2 | Choline Mean (serum samples from rats; rat serum): 13 | Citric acid Mean (serum samples from rats; rat serum): 151 | Citrulline Mean (serum samples from rats; rat serum): 92 | Creatine Mean (serum samples from rats; rat serum): 211 | Creatinine Mean (serum samples from rats; rat serum): 25 | Cystathionine Mean (serum samples from rats; rat serum): 1.1 | Fructose 1,6-diphosphate Mean (serum samples from rats; rat serum): 0.3 | Fructose 6-phosphate Mean (serum samples from rats; rat serum): 0.09 | Fumaric acid Mean (serum samples from rats; rat serum): 2.6 | GDP Mean (serum samples from rats; rat serum): 0.4 | GMP Mean (serum samples from rats; rat serum): 0.07 | GTP Mean (serum samples from rats; rat serum): 1.9 | Gln Mean (serum samples from rats; rat serum): 1,001 | Glu Mean (serum samples from rats; rat serum): 173 | Glucose 6-phosphate Mean (serum samples from rats; rat serum): 0.6 | Glutathione (GSSG) Mean (serum samples from rats; rat serum): 0.4 | Gly Mean (serum samples from rats; rat serum): 488 | Glycerol 3-phosphate Mean (serum samples from rats; rat serum): 3.5 | Glycolic acid Mean (serum samples from rats; rat serum): 11 | His Mean (serum samples from rats; rat serum): 90 | Hydroxyproline Mean (serum samples from rats; rat serum): 65 | IMP Mean (serum samples from rats; rat serum): 0.13 | Ile Mean (serum samples from rats; rat serum): 119 | Isocitric acid Mean (serum samples from rats; rat serum): 8.2 | Lactic acid Mean (serum samples from rats; rat serum): 2,751 | Leu Mean (serum samples from rats; rat serum): 207 | Lys Mean (serum samples from rats; rat serum): 696 | Malic acid Mean (serum samples from rats; rat serum): 12 | Met Mean (serum samples from rats; rat serum): 53 | Mevalonic acid Mean (serum samples from rats; rat serum): 1.5E−04 | N,N-Dimethylglycine Mean (serum samples from rats; rat serum): 11 | N-Carbamoylaspartic acid Mean (serum samples from rats; rat serum): 0.02 | NAD^+ Mean (serum samples from rats; rat serum): 1.1 | Ornithine Mean (serum samples from rats; rat serum): 76 | Phe Mean (serum samples from rats; rat serum): 65 | Phosphocreatine Mean (serum samples from rats; rat serum): 0.9 | Pro Mean (serum samples from rats; rat serum): 220 | Putrescine Mean (serum samples from rats; rat serum): 0.3 | Pyruvic acid Mean (serum samples from rats; rat serum): 107 | Ribose 1-phosphate Mean (serum samples from rats; rat serum): 0.4 | Ribose 5-phosphate Mean (serum samples from rats; rat serum): 0.04 | Ribulose 5-phosphate Mean (serum samples from rats; rat serum): 0.2 | Sarcosine Mean (serum samples from rats; rat serum): 5.5 | Ser Mean (serum samples from rats; rat serum): 319 | Succinic acid Mean (serum samples from rats; rat serum): 10 | Thr Mean (serum samples from rats; rat serum): 217 | Trp Mean (serum samples from rats; rat serum): 110 | Tyr Mean (serum samples from rats; rat serum): 89 | UDP-glucose Mean (serum samples from rats; rat serum): 0.6 | Urea Mean (serum samples from rats; rat serum): 5,050 | Uric acid Mean (serum samples from rats; rat serum): 25 | Val Mean (serum samples from rats; rat serum): 290 | cAMP Mean (serum samples from rats; rat serum): 0.05 | cGMP Mean (serum samples from rats; rat serum): 0.02 | cis-Aconitic acid Mean (serum samples from rats; rat serum): 3.1 | β-Ala Mean (serum samples from rats; rat serum): 1.9 | serum levels of N-acetylglutamic acid (serum samples from rats; rats, vs control): not altered | serum levels of arginine (serum samples from rats; rats, vs control): not altered | serum levels of pyruvic acid (serum samples from rats; rats, vs control): not altered | serum levels of serine (serum samples from rats; rats, vs control): not altered | serum levels of β-alanine (serum samples from rats; rats, vs control): not altered | Idh3b gene expression (Idh3b; rat hippocampus): 1.1512 ± 0.1377 | mRNA levels of Idh3b (Idh3b; [1]): did not alter; also recorded: not altered | Idh3b gene expression (Idh3b; rat prefrontal cortex): 1.2265 ± 0.2128 | Aco2 gene expression (Aco2; rat hippocampus): 1.0358 ± 0.0499 | mRNA levels of Aco2 (Aco2; [1]): did not alter; also recorded: not altered | Aco2 gene expression (Aco2; rat prefrontal cortex): 0.9505 ± 0.1596 | mRNA levels of Idh3a (Idh3a; [1]): did not alter; also recorded: not altered | Idh3a gene expression (Idh3a; rat prefrontal cortex, relative to control, mean ± SD): 1.2546 ± 0.3578
